One series concerns sigma binding sites. The settings on record: J. Pharmacol. Exp. Ther. 238 (1986) 739; cited from earlier work.
The subject of a further series is guinea-pig hearts. Description: ECG measurement of QT prolongation on isolated perfused (Langendorff) guinea-pig hearts. Further details: species or system guinea-pig (male Duncin-Hartley). The settings on record: Cavia porcellus, 0.25 h; isolated guinea-pig heart, Krebs-Henseleit perfusate, 37° C., cumulative addition at 15 min intervals; linear regression on log dose; read-out: ED20% (dose at which the QT interval is increased by 20% from the initial level). An excerpt:
In this connection, the cardiac cycle is divided into systole (contraction of the heart), also called QT interval, and diastole (relaxation of the heart with filling of the ventricles with blood). Repolarization inhibitors increase the QT interval but have a negligible effect on the atrioventricular conduction time (PQ interval) and the period of isometric contraction (QRS time, from start of systole to opening of the semilunar valves) (see Pschyrembel, 254th Edition, 1982).
The activity of the compounds according to the invention as repolarization inhibitors can be investigated in animal experiments by ECG measurements on, for example, guinea-pig hearts (see Basic Res. Cardiol. 82 (1987) 437; J. Pharmacol. Methods 21 (1989) 195). Comparison of the activities of various substances is based, for example, on the dose of an active substance at which the QT interval is increased by 20% from the initial level (ED20%). To do this, the logarithms of the doses of the substances are plotted against the experimentally found relative changes in the QT interval, and linear regression is used to determine the equation of a straight line from which the ED20% can then be calculated.
This method was used to determine the ED20% values of compounds according to the invention (see Table 1) . The comparison substance was D-sotalol [4'-(1-hydroxy-2-(isopropylamino)ethyl)methanesulfonanilide].
The experimental animals were male Duncin-Hartley guinea-pigs weighing from 300 to 350 g. 30 min after administration of 1250 I.U. of heparin/kg of body weight into the abdominal cavity, the animals were sacrificed by a blow to the back of the neck. The common carotid arteries were severed for exsanguination, then the thoracic cavity was opened and the heart was removed and connected to a perfusion apparatus. The Langendorff perfusion was carried out with oxygen-enriched Krebs-Henseleit solution (NaCl 6896 mg/l; KCl 350 mg/l; MgSO4 285 mg/l; CaCl2 370 mg/l; KH2 PO4 161 mg/l; NaHCO3 2090 mg/l; glucose 2000 mg/1) at 37° C. The perfusion volume per unit time was 4 to 6 ml/min, the total volume was 100 ml and the perfusion pressure was 60 to 70 mm Hg. Circulating perfusion was carried out after an equilibration time of 30 min.
Two silver electrodes attached to the surface of the heart in the upper region of the left coronary artery and on the rear of the heart at the level of the valve were used for the ECG recordings. The PQ and QT intervals and QRS times, and the heart rate, were measured.
The substances were added to the perfusate cumulatively at 15 min intervals.

Series [1] has as its target sigma receptor. Description: Sigma receptor binding ([^3 H]-ditolylguanidine). The settings on record: rat cerebra membranes, pH 7.7, 37° C., read-out: Activity constants Ki for the [^3 H]-ditolylguanidine binding site.
The next series deals with humans. The settings on record: substances which bind to sigma receptors; J. Pharmacol. Exp. Ther. 197 (1976) 517; cited from earlier work.
The subject of series [2] is sigma receptor. The settings on record: cited from earlier work.

Here are results for 13 compounds from patent publication US5296485A, “Substituted N-phenylpiperidines and drugs therefrom” (BASF Aktiengesellschaft, priority 1991, dated 1994).

Read-outs that look alike come from different tables or passages of the source.

Take `OC(CCCN1CCN(c2ncc(F)cn2)CC1)c1ccc(F)cc1` (stereo not drawn) [BMY 14802, α-(4-fluorophenyl)-4-(5-fluoro-2-pyrimidinyl)-1-piperazinebutanol]: in the series with sigma binding sites, the “affinity for sigma binding sites” value is “high affinity”.
Take `CC(C)NC[C@@H](O)c1ccc(NS(C)(=O)=O)cc1` [D-sotalol, 4'-(1-hydroxy-2-(isopropylamino)ethyl)methanesulfonanilide]: the EC20 with guinea-pig hearts was 16 µM.
In the case of `CN(Cc1ccccc1)CC1CCN(c2ccc([N+](=O)[O-])cc2)CC1` [Example 2, 4-(N-Benzyl-N-methylaminomethyl)-1-(4-nitrophenyl)piperidine], the EC20 in the series with guinea-pig hearts worked out at 0.42 µM. Besides, at sigma receptor [1], the inhibition constant Ki was 11 nM.
Turning to `N#Cc1ccc(N2CCC(N3CCN(c4ccc([N+](=O)[O-])cc4)CC3)CC2)cc1` [Example 3, N-[1-(4-Cyanophenyl)-4-piperidinyl)-N'-(4-nitrophenyl)piperazine], the EC20 in the series with guinea-pig hearts turned out to be 0.031 µM.
`O=[N+]([O-])c1ccc(N2CCC(N3CCC(c4ccccc4)CC3)CC2)cc1` [Example 8, 1-(4-Nitrophenyl)-4-(4-phenyl-1-piperidinyl)piperidine]: the Ki on sigma receptor [1] stood at 2.8 nM.
Consider `CN(Cc1ccc(NS(C)(=O)=O)cc1)CC1CCN(c2ccc(NS(C)(=O)=O)cc2)CC1` [Example 10, 1-(4-Methanesulfonamidophenyl)-4-[N-(4-methanesulfonamidobenzyl)-N-methylaminomethyl]piperidine], for which, in the series with guinea-pig hearts, the EC20 came out at 0.96 µM.
With `CN(Cc1ccccc1)C1CCCN(c2ccc([N+](=O)[O-])cc2)C1` (stereo not shown) [Example 11, 3-(N-benzyl-N-methylamino)-1-(4-nitrophenyl)piperidine], the EC20 with guinea-pig hearts is 1.1 µM. Further, the Ki at sigma receptor [1] is 2 nM.
`CN(CC(O)c1ccc(F)cc1)C1CCN(c2ccc([N+](=O)[O-])cc2)CC1` (stereo not shown) [Example 12, 4-[N-[2-(4-Fluorophenyl)-2-hydroxyethyl]-N-methylamino]-1-(4-nitrophenyl)piperidine]: the EC20 in the series on guinea-pig hearts was 0.21 µM.
As to `C[C@H]1[C@H]2Cc3ccc(O)cc3[C@]1(C)CCN2CC1CC1` [cyclazocine], in the series on humans, the “psychotomimetic effects in humans” value is reported as “psychotomimetic effects”.
In the case of `O=C(CCCN1CCC(O)(c2ccc(Cl)cc2)CC1)c1ccc(F)cc1` [haloperidol], in the series with sigma receptor [2], the “affinity of the haloperidol-sensitive sigma receptors” value was “high affinity”. In addition, in the series on sigma binding sites, the “affinity for sigma binding sites” value is given as “high affinity”.
With `CNC1(c2ccccc2Cl)CCCCC1=O` (stereo not shown) [ketamine], the “psychotomimetic effects in humans” value in the series with humans was “psychotomimetic effects”.
For `CC(C)=CCN1CCC2(C)c3cc(O)ccc3CC1C2C` (stereo not shown) [pentazocine], in the series with humans, the “psychotomimetic effects in humans” value is recorded as “psychotomimetic effects”.
For `c1ccc(C2(N3CCCCC3)CCCCC2)cc1` [phencyclidine], the “affinity of the haloperidol-sensitive sigma receptors” value in the series with sigma receptor [2] (statement in words on the receptor used in the assay) was “low affinity”.
